The NIST ThermoML archive (doi:10.1021/je300827f)

Assay: xn = mol fraction of the nth substance listed
Details: 101 kPa, Liquid; for viscosity: Capillary tube (Ostwald / Ubbelohde) method; for mass density: Vibrating tube method

OCCOCCO [diethylene glycol] + CCC(C)O
Details | mass density, 298.15 K [kg/m3] | mass density, 303.15 K [kg/m3] | mass density, 308.15 K [kg/m3] | mass density, 313.15 K [kg/m3] | viscosity, 298.15 K [mPa·s] | viscosity, 303.15 K [mPa·s] | viscosity, 308.15 K [mPa·s] | viscosity, 313.15 K [mPa·s]
x1 = 0.0808 | 829.4 | 824.8 | 819.9 | 815.3 | 3.69 | – | – | –
x1 = 0.0833 | – | – | – | – | – | 3.1 | 2.65 | 2.22
x1 = 0.1598 | 855.3 | 850.5 | 845.5 | 840.7 | 4.42 | – | – | –
x1 = 0.161 | – | – | – | – | – | 3.69 | 3.17 | 2.74
x1 = 0.2398 | 881.3 | 876.3 | 871.2 | 866.3 | 5.33 | – | – | –
x1 = 0.2402 | – | – | – | – | – | 4.41 | 3.77 | 3.31
x1 = 0.3494 | 916.4 | 911.3 | 906.2 | 901.2 | 6.94 | – | – | –
x1 = 0.3498 | – | – | – | – | – | 5.69 | 4.77 | 4.25
x1 = 0.4399 | 944.9 | 939.8 | 934.7 | 929.8 | 8.61 | – | – | –
x1 = 0.441 | – | – | – | – | – | 7.03 | 5.79 | 5.16
x1 = 0.5591 | 981.9 | 977.8 | 971.9 | 967.1 | 11.34 | – | – | –
x1 = 0.5609 | – | – | – | – | – | 9.25 | 7.44 | 6.62
x1 = 0.6498 | – | – | – | – | – | 11.31 | 8.98 | 7.93
x1 = 0.6501 | 1009.7 | 1004.9 | 1000.1 | 995.4 | 13.86 | – | – | –
x1 = 0.7398 | – | – | – | – | – | 13.64 | 10.74 | 9.42
x1 = 0.7399 | 1036.7 | 1032.3 | 1027.6 | 1023.1 | 16.72 | – | – | –
x1 = 0.8499 | 1069.2 | 1065.1 | 1060.9 | 1056.8 | 20.75 | – | – | –
x1 = 0.8501 | – | – | – | – | – | 16.88 | 13.24 | 11.5
x1 = 0.9399 | 1095.3 | 1091.7 | 1087.9 | 1084.2 | 24.46 | – | – | –
x1 = 0.9405 | – | – | – | – | – | 19.8 | 15.56 | 13.42
x1 = 1 | 1112.4 | 1109.1 | 1105.6 | 1102.3 | 27.15 | 21.87 | 17.26 | 14.81

OCCOCCO [diethylene glycol] + CCCCC(C)O
x1 = 1
Details | mass density [kg/m3] | viscosity [mPa·s]
298.15 K | 1112.4 | 27.15
303.15 K | 1109.1 | 21.87
308.15 K | 1105.6 | 17.26
313.15 K | 1102.3 | 14.81

OCCOCCO [diethylene glycol] + CC(C)O
Details | mass density, 298.15 K [kg/m3] | mass density, 303.15 K [kg/m3] | mass density, 308.15 K [kg/m3] | mass density, 313.15 K [kg/m3] | viscosity, 298.15 K [mPa·s] | viscosity, 303.15 K [mPa·s] | viscosity, 308.15 K [mPa·s] | viscosity, 313.15 K [mPa·s]
x1 = 0.0808 | 814.9 | 810.2 | 805.2 | 800.5 | 2.71 | 2.54 | 2.22 | 1.9
x1 = 0.1599 | 846.9 | 841.8 | 836.5 | 831.7 | 3.59 | 3.38 | 2.89 | 2.52
x1 = 0.2398 | 877.8 | 872.4 | 867 | 862 | 4.73 | 4.35 | 3.63 | 3.25
x1 = 0.3501 | 918.3 | 912.7 | 907.3 | 902.2 | 6.67 | 5.93 | 4.83 | 4.41
x1 = 0.4399 | 949.6 | 943.9 | 938.5 | 933.4 | 8.59 | 7.44 | 6 | 5.49
x1 = 0.5596 | 988.8 | 983.3 | 978.1 | 973.1 | 11.59 | 9.8 | 7.84 | 7.09
x1 = 0.6499 | 1016.8 | 1011.5 | 1006.4 | 1001.4 | 14.2 | 11.84 | 9.47 | 8.44
x1 = 0.7396 | 1043.2 | 1038.2 | 1033.4 | 1028.8 | 17.08 | 14.1 | 11.27 | 9.89
x1 = 0.8501 | 1073.9 | 1069.5 | 1065.2 | 1061.1 | 21.04 | 17.19 | 13.7 | 11.84
x1 = 0.9402 | 1097.4 | 1093.8 | 1089.8 | 1086.2 | 24.61 | 19.94 | 15.82 | 13.58
x1 = 1 | 1112.4 | 1109.1 | 1105.6 | 1102.3 | 27.15 | 21.87 | 17.26 | 14.81

CC(C)O [propan-2-ol] + OCCOCCO
x2 = 0
Details | mass density [kg/m3] | viscosity [mPa·s]
298.15 K | 781.1 | 2.06
303.15 K | 776.7 | 1.79
308.15 K | 771.8 | 1.56
313.15 K | 767.4 | 1.38
